Experimental data reported in patent US12509446B2, “FYN and VEGFR2 kinase inhibitors” (ROTTAPHARM BIOTECH S.R.L., priority 2019, dated 2025).

How the values were obtained:
[1] = target: T1, VEGFR2 (Homo sapiens (Human), UniProt P35968); experiment: In vitro VEGFR2 kinase activity assay (Eurofins Cerep); format: biochemical; conditions: read-out: VEGFR2 KINASE INHIBITION IC50
Summary of the method: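 Contract biochemical kinase assay on human VEGFR2 with inhibitors at 10^−8 to 10^−5 M final (some re-tested from 10^−9 M). Activity expressed as percent of no-compound control; IC50 by non-linear regression of mean replicate inhibition curves.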

[2] = target: T1, VEGFR2; experiment: ADP-Glo kinase assay at high ATP concentration (0.5 mM), VEGFR2; format: biochemical; conditions: ATP 0.5 mM; read-out: VEGFR2 IC50 in the presence of high ATP concentration
Procedure: The inhibition of Fyn and VEGFR2 kinase activity was evaluated in the presence of a fixed ATP concentration (0.5 mM), near to the millimolar range present in cells. The assay was performed by The ADP-Glo™ Kinase Assay (Promega), monitoring ADP produced in the kinase reaction. Kinase reaction was performed in 10 μl, according to supplier indication, in a white 384-well plate.
Inhibitor solutions in DMSO/Kinase buffer and the kinase (Fyn 2.5 ng/μl and VEGFR2 0.5 ng/μl final concentration in assay) were pre-incubate 15 minutes at room temperature. The range of inhibitor concentrations was from 10^−10 M up to 10^−5 M (final concentration in assay). To start the reaction, a substrate/ATP mix (0.5 mM final concentration, corresponding to 10× ATP KM value) was added to each sample. After 60 minutes incubation at room temperature, ADP-Glo™ Reagent and Kinase Detection Reagent, added and incubated in sequence according to supplier indication, allowed to stop and develop the kinase reaction. The percentage of inhibition, calculated towards the enzymatic activity in the absence of test compound, and the corresponding inhibition curves were analyzed by non-linear curve fitting (GraphPad software, version 7 for Windows), allowing to calculate the IC50 value.

[3] = target: CDK2 (Homo sapiens (Human), UniProt P24941); experiment: Kinase selectivity (Eurofins Cerep), CDK2; format: biochemical; conditions: maximal concentration tested 10 μM
Procedure: (§1) The assays were performed in Eurofins Cerep (France). The concentration range of the compound under investigation was from 10^−9 M up to 10^−5 M final concentration.

[4] = target: AurA (Homo sapiens (Human), UniProt O14965); experiment: Kinase selectivity (Eurofins Cerep), AurA; format: biochemical; conditions: maximal concentration tested 10 μM
Procedure: as §1

[5] = target: AMPKa; experiment: Kinase selectivity (Eurofins Cerep), AMPKa; format: biochemical, human; conditions: maximal concentration tested 10 μM
Procedure: as §1

[6] = target: human FynB (Homo sapiens, UniProt P06241); experiment: Inhibition of FynB-induced Tau(Y18)-phosphorylation in HEK293 cells; format: cell-based
Procedure: After 24 h, cells were transfected in order to over-express either constitutively active form of human FynB and Tau protein (isoform 0N4R), through an optimized Lipofectamine®3000 Transfection protocol (Life Technologies™). A non-transfected sample (negative control) was included in every experiment. Twenty-four hours from transfection, treatments of cells were performed by adding fresh medium containing diluent (DMSO 0.1% final concentration) or test compounds. The incubation was carried out for 6 or 24 hours at 37° C. with 5% CO2. At the end of the incubation, the medium was removed and cellular lysates, obtained by adding M-PER lysis/Protease/Phosphatase inhibitors cocktail, were transferred into Eppendorf tubes, sonicated and stored at −80° C. Protein content was measured by Bradford method. Lysates were analyzed either by customized ELISA assays for Tau phosphorylation (Tyrosine 18 residue—Fyn mediated) and Tau-Total amount determination.

[7] = tested on: IL-6; experiment: Gene expression in rat articular chondrocytes under IL-1β stimulation, IL-6; format: cell-based; conditions: Rattus norvegicus, Chondrocyte; 6 h incubation
[8] = tested on: MMP3; experiment: Gene expression in rat articular chondrocytes under IL-1β stimulation, MMP3; format: cell-based; conditions: Rattus norvegicus, Chondrocyte; 24 h incubation
Summary of the method: (§2)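 Rat chondrocytes, day 10 post-plating; switched to DMEM GlutaMAX I 0.4%; compound + cytokine 2 ng/ml; 6 h (IL-1β, ADAMTS-5) or 24 h (MMP3, MMP13); total RNA → cDNA → TaqMan qPCR, 18S-normalised.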

[9] = tested on: MMP13; experiment: Gene expression in rat articular chondrocytes under IL-1β stimulation, MMP13; format: cell-based; conditions: Rattus norvegicus, Chondrocyte; 24 h incubation
Summary of the method: as §2

[10] = tested on: bovine nasal septum cartilage; experiment: Inhibition of cartilage degradation (GAG release) induced by IL-1α in a bovine in vitro model; format: cell-based
Summary of the method: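 Cartilage punches (2 mm) from an 8-month-old male bovine nasal septum were cultured 48 h, then stimulated 48 h with IL-1α […] ± compound in DMEM + 0.1% BSA. Compound doses were set from 48 h rat chondrocyte toxicity. GAG in medium and papain-digested tissue was measured by DMB absorbance at 590 nm; degradation = medium GAG/total GAG × 100.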

[11] = tested on: CFA induced hyperalgesia; experiment: Complete Freund Adjuvant (CFA)-induced inflammatory pain in rats; format: in vivo, rat; conditions: intra-dermal
[12] = Pharmacokinetics, systemic routes, rats; format: in vivo
[13] = Pharmacokinetics after administration into the knee joint of rats; format: in vivo; conditions: suspension into the knee joint
[14] = tested on: rat primary articular chondrocytes; experiment: Toxicity analysis (MTT) in rat primary chondrocytes

Chain of human FynB (P06241 2-537 limits assumed): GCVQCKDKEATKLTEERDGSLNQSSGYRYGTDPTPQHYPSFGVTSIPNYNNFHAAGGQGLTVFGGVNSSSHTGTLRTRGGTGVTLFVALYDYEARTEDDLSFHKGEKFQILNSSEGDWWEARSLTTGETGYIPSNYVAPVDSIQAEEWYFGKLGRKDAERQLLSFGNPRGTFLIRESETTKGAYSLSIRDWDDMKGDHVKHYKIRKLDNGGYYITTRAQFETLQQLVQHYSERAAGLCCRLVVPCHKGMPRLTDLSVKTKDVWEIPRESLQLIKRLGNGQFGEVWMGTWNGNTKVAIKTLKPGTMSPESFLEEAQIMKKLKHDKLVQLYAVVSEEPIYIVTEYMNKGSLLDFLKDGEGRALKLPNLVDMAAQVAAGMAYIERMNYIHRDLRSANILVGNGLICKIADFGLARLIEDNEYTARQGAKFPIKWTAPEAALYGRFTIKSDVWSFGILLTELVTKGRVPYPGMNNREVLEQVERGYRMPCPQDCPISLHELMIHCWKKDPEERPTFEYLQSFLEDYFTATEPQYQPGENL
T1 sequence (P35968 20-1356): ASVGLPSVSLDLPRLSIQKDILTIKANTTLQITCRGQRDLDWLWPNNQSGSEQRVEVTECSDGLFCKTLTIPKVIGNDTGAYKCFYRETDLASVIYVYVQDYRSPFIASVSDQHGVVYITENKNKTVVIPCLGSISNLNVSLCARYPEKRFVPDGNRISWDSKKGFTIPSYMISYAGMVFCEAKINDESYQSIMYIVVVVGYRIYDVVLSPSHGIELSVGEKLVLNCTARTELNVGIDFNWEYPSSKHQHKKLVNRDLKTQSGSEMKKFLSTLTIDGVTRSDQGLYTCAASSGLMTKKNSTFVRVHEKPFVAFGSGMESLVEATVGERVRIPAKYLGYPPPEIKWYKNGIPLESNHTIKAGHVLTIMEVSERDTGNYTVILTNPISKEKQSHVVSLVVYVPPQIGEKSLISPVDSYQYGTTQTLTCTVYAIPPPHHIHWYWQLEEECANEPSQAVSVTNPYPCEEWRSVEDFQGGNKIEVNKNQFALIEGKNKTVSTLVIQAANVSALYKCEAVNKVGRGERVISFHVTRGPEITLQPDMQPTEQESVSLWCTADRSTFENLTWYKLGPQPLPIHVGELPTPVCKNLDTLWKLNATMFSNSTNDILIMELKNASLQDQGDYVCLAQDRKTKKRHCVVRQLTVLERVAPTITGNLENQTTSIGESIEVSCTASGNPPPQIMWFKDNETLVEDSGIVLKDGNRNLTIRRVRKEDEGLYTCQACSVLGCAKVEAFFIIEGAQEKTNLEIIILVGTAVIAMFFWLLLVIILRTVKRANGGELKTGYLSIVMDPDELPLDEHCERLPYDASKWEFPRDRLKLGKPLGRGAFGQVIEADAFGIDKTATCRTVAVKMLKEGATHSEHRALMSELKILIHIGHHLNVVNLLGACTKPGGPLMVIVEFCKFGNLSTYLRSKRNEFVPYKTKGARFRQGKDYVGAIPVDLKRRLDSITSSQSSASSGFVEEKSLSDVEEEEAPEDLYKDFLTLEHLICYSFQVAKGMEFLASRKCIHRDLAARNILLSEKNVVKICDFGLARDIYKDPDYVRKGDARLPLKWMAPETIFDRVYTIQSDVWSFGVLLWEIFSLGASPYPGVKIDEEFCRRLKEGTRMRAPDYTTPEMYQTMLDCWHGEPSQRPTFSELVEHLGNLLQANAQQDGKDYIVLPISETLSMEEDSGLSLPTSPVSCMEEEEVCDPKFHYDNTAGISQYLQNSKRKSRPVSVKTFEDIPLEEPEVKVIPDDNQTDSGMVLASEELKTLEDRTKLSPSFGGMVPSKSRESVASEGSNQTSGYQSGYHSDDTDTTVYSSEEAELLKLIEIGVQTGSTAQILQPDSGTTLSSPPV
Chain of AurA (O14965 whole entry): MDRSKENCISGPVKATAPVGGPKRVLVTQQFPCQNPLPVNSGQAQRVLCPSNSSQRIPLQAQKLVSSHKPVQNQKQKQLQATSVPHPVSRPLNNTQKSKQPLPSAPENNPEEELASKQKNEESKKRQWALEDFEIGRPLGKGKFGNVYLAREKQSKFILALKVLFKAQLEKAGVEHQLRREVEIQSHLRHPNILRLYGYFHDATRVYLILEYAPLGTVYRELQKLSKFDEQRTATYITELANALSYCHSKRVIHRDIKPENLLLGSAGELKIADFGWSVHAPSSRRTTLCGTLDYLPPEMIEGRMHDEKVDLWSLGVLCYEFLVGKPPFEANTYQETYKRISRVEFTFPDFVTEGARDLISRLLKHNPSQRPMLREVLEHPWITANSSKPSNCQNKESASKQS

## Cc1ccc(NC(=O)c2cccc(C(F)(F)F)c2)cc1CCc1cc(Nc2cnccn2)[nH]n1 [Compound 3, N-(4-methyl-3-(2-(5-(pyrazin-2-ylamino)-1H-pyrazol-3-yl)ethyl)phenyl)-3-(trifluoromethyl)benzamide]
[1]
  IC50: 7 nM
[2]
  IC50: 58 nM
[3]
  IC50: > 10000 nM
[4]
  IC50: > 10000 nM
[5]
  IC50: > 10000 nM
[6]
  Effect on Tau-protein total amount: Moderate not significant effect
[6]; after 24 hours of treatment
  Mean percentage of inhibition of Tau(Y18)-phosphorylation: 95%
[6]; read-out: Inhibition of FynB-induced Tau(Y18)-phosphorylation IC50, after 6 hours of treatment
  IC50: 131 nM
[7]
  IC50: 18 nM
[8]
  IC50: 323 nM
[9]
  IC50: 477 nM
[10]; Bos taurus, 1 μM, read-out: Bovine cartilage degradation induced by IL-1α, % inhibitory effect at max concentration
  inhibition at 1 µM: 100%
[10]; at max concentration
  Inhibitory effect on the GAG release: 95-100%
[11]; 3 μM (140 ng/paw), no CFA challenge
  Effect on normal nociception in naïve animals: did not modify the normal nociception
[11]; maximal concentration of 3 μM (140 ng/paw)
  Effect on pain behavior in CFA inflamed animals (mechanical pain threshold): completely reverted the pain behavior
[12]
  Metabolism in rats: lack of important metabolism
[12]; rat, in vivo, oral route, read-out: Absolute bioavailability
  bioavailability: ~6%
[13]
  Permanence in the synovial fluid and articular tissues (cartilage and synovial fat): at least 14 days
[14]; 48 h
  First toxic concentration at 48 h in rat primary chondrocytes: 3 µM
[14]; rat primary chondrocytes, 24 h
  First toxic concentration at 24 h: 10 µM
